Values of other authors, collected in patent US20100209348A1, “METHODS FOR DETERMINING LIPOSOME BIOEQUIVALENCE” (Arondo Pharma, Inc., priority 2009, published 2010).
Counter-ions that a name gives are not always drawn.

Details: IV infusion up to 60 min, up to 60 mg/m^2 every 3 weeks (dose rate 20 mg/m^2/week)

Q: For `COc1cccc2c1C(=O)c1c(O)c3c(c(O)c1C2=O)C[C@@](O)(C(=O)CO)C[C@@H]3O[C@H]1C[C@H](N)[C@H](O)[C@H](C)O1` [doxorubicin, Doxorubicin HCl], which “clinically significant PPE” value is on record?
A: The value was “does not typically cause clinically significant PPE”.
